In patent publication US20250186541A1, “DLL3 TARGETING PEPTIDES AND CONSTRUCTS THEREOF” (MARIANA ONCOLOGY INC., priority 2023, published 2025):
Numbered stars: 1 amine (or outer) side, 2 acyl side, 3 side chain; on linkers, the order of the positions; unused ones are H or OH. Bridge positions count the residues as written; N and C are the ends. Square brackets hold non-standard residues; d marks the D form. Peptide text beside a SMILES is read from it. * marks the point of attachment. Ala(piperidin-4-yl) = O=C([C@H](CC1CCN([*:3])CC1)N[*:1])[*:2]; X1 = C[C@@]1(C(=O)C[C@@H](Cc2ccccc2)C(=O)[*:2])CCCN1[*:1]; DOTA = O=C(O)CN1CCN(CC(=O)O)CCN(CC(=O)*)CCN(CC(=O)O)CC1; Trp(7-Me) = Cc1cccc2c(C[C@H](N)C(=O)O)c[nH]c12; X3 = O=C([C@H](Cc1ccccc1CN[*:3])N[*:1])[*:2]; Phe(4-CH2NH2) = NCc1ccc(C[C@H](N)C(=O)O)cc1; 1Nal = N[C@@H](Cc1cccc2ccccc12)C(=O)O; 2Nal = N[C@@H](Cc1ccc2ccccc2c1)C(=O)O; NMetBuAla = CN[C@@H](CC(C)(C)C)C(=O)O; NMeChg = CN[C@H](C(=O)O)C1CCCCC1; tBuAla = CC(C)(C)C[C@H](N)C(=O)O; AllylGly = C=CC[C@H](N)C(=O)O; Chg = N[C@H](C(=O)O)C1CCCCC1; αMeP = C[C@@]1(C(=O)O)CCCN1; Ahx = NCCCCCC(=O)O

Each compound was assayed against T1, human DLL3 (Homo sapiens, UniProt Q9NYJ7) (assay: Affinity determination by Surface Plasmon Resonance (SPR), Biacore, 1:1 binding model). Settings: biotinylated human DLL3 on streptavidin chip, 25° C.; NB = nonbinding.
T1 construct: biotin (biotinylated)
T1 sequence (Q9NYJ7 27-618): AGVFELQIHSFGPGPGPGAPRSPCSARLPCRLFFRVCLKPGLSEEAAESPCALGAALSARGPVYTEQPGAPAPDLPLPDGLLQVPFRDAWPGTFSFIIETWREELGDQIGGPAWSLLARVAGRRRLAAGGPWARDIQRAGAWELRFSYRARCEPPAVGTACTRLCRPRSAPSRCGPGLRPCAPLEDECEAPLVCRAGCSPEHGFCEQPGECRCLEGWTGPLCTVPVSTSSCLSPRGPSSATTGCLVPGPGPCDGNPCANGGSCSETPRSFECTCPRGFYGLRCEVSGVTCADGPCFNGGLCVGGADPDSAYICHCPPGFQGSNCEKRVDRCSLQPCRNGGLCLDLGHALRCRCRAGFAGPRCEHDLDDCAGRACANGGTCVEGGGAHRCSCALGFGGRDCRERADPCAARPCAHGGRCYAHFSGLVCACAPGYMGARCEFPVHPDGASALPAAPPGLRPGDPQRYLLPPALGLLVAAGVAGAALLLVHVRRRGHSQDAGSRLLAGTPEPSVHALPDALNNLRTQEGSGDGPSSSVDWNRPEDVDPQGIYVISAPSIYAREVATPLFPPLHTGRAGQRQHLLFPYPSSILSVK
Summary of the method: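 SPR with biotinylated human DLL3 captured on a streptavidin chip, with a reference surface subtracted. Samples were injected at several concentrations at 100 μL/min in phosphate buffer with 137 mM NaCl, 2.7 mM KCl, 0.05% P20 and 2% DMSO. Kinetic and affinity constants came from a 1:1 binding fit.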

In the case of CC(=O)N[C@@H](CC1CCNCC1)C(=O)N[C@@H](CO)C(=O)N[C@@H](CC(=O)O)C(=O)N[C@H]1C/C=C\C[C@@H](C(=O)N2CCC[C@@]2(C)C(=O)N[C@@H](Cc2ccccc2)C(=O)N[C@@H](CC(=O)O)C(N)=O)NC(=O)[C@H](CC(N)=O)NC(=O)[C@H](Cc2ccc3ccccc3c2)NC(=O)[C@H](Cc2ccc(CNC(=O)CN3CCN(CC(=O)O)CCN(CC(=O)O)CCN(CC(=O)O)CC3)cc2)NC(=O)[C@H](CC(C)(C)C)NC(=O)[C@H](Cc2cccc3ccccc23)NC1=O [compound 198, Ac-(D-Ala)-S-D-AllyG(4)-(1Nal)-(t-Bu-Ala)-[PAF(DOTA)]-(2Nal)-N-AllyG(4)-(aMe-P)-F-D-CONH2] (Ac-[Ala(piperidin-4-yl)]SD[AllylGly][1Nal][tBuAla][Phe(4-CH2NH2)](DOTA)[2Nal]N[AllylGly][αMeP]FD-NH2; staple (Z) 4-10), the “SPR KD (nM)” value is reported as “heterogenous binding”.

Compared with CC(=O)N[C@H](C)C(=O)N[C@@H](CO)C(=O)N[C@@H](CC(=O)O)C(=O)N[C@H]1CSSC[C@@H](C(=O)N2CCC[C@@]2(C)C(=O)N[C@@H](Cc2ccccc2CNC(=O)CN2CCN(CC(=O)O)CCN(CC(=O)O)CCN(CC(=O)O)CC2)C(=O)N[C@@H](CC(=O)O)C(N)=O)NC(=O)[C@H](CC(N)=O)NC(=O)[C@H](Cc2ccc3ccccc3c2)NC(=O)[C@H](CCC(N)=O)NC(=O)[C@H](CC(C)(C)C)NC(=O)[C@H](Cc2cccc3ccccc23)NC1=O [compound 159, Ac-(D-Ala)-S-D-C(3)-(1Nal)-(t-Bu-Ala)-Q-(2Nal)-N-C(3)-(aMe-P)-[OAF(DOTA)]-D-CONH2] (Ac-[dA]SDC[1Nal][tBuAla]Q[2Nal]NC[αMeP][X3](DOTA)D-NH2; disulfide 4-10), CC(=O)N[C@H](C(=O)N[C@@H](CO)C(=O)N[C@@H](CC(=O)O)C(=O)N[C@H]1CSSC[C@@H](C(=O)N2CCC[C@@]2(C)C(=O)N[C@@H](Cc2ccccc2)C(=O)N[C@@H](CC(=O)O)C(=O)N[C@H](CCCCNC(=O)CN2CCN(CC(=O)O)CCN(CC(=O)O)CCN(CC(=O)O)CC2)C(N)=O)NC(=O)[C@H](CC(N)=O)NC(=O)[C@H](Cc2ccc3ccccc3c2)NC(=O)[C@H](CCC(N)=O)NC(=O)[C@H](CC(C)C)NC(=O)[C@H](Cc2cccc3ccccc23)NC1=O)C1CCCCC1 [compound 124, Ac-(Chg)-S-D-C(3)-(1Nal)-L-Q-(2Nal)-N-C(3)-(aMe-P)-F-D-D-Lys(DOTA)-CONH2] (Ac-[Chg]SDC[1Nal]LQ[2Nal]NC[αMeP]FD[dK](DOTA)-NH2; disulfide 4-10) is lower in Kd: > 30 nM for the first, 0.15 nM for the second. The second binds more tightly here.

CC(=O)N[C@H](C(=O)N[C@@H](CO)C(=O)N[C@@H](CC(=O)O)C(=O)N[C@H]1C/C=C/C[C@@H](C(=O)N2CCC[C@@]2(C)C(=O)N[C@@H](Cc2ccccc2)C(=O)N[C@@H](CC(=O)O)C(=O)N[C@H](CCCCNC(=O)CN2CCN(CC(=O)O)CCN(CC(=O)O)CCN(CC(=O)O)CC2)C(N)=O)NC(=O)[C@H](CC(N)=O)NC(=O)[C@H](Cc2ccc3ccccc3c2)NC(=O)[C@H](CC2CCNCC2)NC(=O)[C@H](CC(C)(C)C)N(C)C(=O)[C@H](Cc2cccc3ccccc23)NC1=O)C1CCCCC1 [compound 186, Ac-Chg-S-D-AllyG(4)-(1Nal)-(NMe-Tba)-[3-(4-piperidinyl)-Ala]-(2Nal)-N-AllyG(4)-(aMe-P)-F -D-[D-Lys(DOTA)]-NH2] (Ac-[Chg]SD[AllylGly][1Nal][NMetBuAla][Ala(piperidin-4-yl)][2Nal]N[AllylGly][αMeP]FD[dK](DOTA)-NH2; staple (E) 4-10) and CC(=O)N[C@@H](CO)C(=O)N[C@@H](CC(=O)O)C(=O)N[C@H]1CSSC[C@@H](C(=O)N2CCC[C@@]2(C)C(=O)N[C@@H](Cc2ccccc2)C(=O)N[C@@H](CC(=O)O)C(=O)N[C@H](CCCCNC(=O)CN2CCN(CC(=O)O)CCN(CC(=O)O)CCN(CC(=O)O)CC2)C(N)=O)NC(=O)[C@H](CC(N)=O)NC(=O)[C@H](Cc2ccc3ccccc3c2)NC(=O)[C@H](CC2CCNCC2)NC(=O)[C@H](C2CCCCC2)N(C)C(=O)[C@H](Cc2cccc3ccccc23)NC1=O [compound 179, Ac-S-D-C(3)-(1Nal)-(NMe-Chg)-[3-(4-piperidinyl)-Ala]-(2Nal)-N-C(3)-(aMe-P)-F -D-[D-Lys(DOTA)]-NH2] (Ac-SDC[1Nal][NMeChg][Ala(piperidin-4-yl)][2Nal]NC[αMeP]FD[dK](DOTA)-NH2; disulfide 3-9) cannot be ordered by Kd: > 30 nM for the first, > 30 nM for the second.

Going from CC(=O)N[C@H](C)C(=O)N[C@H](CO)C(=O)N[C@@H](CC(=O)O)C(=O)N[C@H]1CSSC[C@@H](C(=O)N2CCC[C@@]2(C)C(=O)C[C@@H](Cc2ccccc2)C(=O)N[C@@H](CC(=O)O)C(=O)N[C@H](CCCCNC(=O)CN2CCN(CC(=O)O)CCN(CC(=O)O)CCN(CC(=O)O)CC2)C(N)=O)NC(=O)[C@H](CC(N)=O)NC(=O)[C@H](Cc2ccc3ccccc3c2)NC(=O)[C@H](CCC(N)=O)NC(=O)[C@H](C2CCCCC2)NC(=O)[C@H](Cc2cccc3ccccc23)NC1=O [compound 126, Ac-(D-Ala)-(D-Ser)-D-C(3)-(1Nal)-(Chg)-Q-(2Nal)-N-C(3)-(aMe-P)-F-D-D-Lys(DOTA)-CONH2] (Ac-[dA][dS]DC[1Nal][Chg]Q[2Nal]NC[X1]D[dK](DOTA)-NH2; disulfide 4-10) to CC(=O)N[C@H](C(=O)N[C@@H](CO)C(=O)N[C@@H](CC(=O)O)C(=O)N[C@H]1CSSC[C@@H](C(=O)N2CCC[C@@]2(C)C(=O)N[C@@H](Cc2ccccc2)C(=O)N[C@@H](CC(=O)O)C(=O)N[C@H](CCCCNC(=O)CN2CCN(CC(=O)O)CCN(CC(=O)O)CCN(CC(=O)O)CC2)C(N)=O)NC(=O)[C@H](CC(N)=O)NC(=O)[C@H](Cc2c[nH]c3c(C)cccc23)NC(=O)[C@H](CC2CCNCC2)NC(=O)[C@H](C2CCCCC2)N(C)C(=O)[C@H](Cc2cccc3ccccc23)NC1=O)C1CCCCC1 [compound 185, Ac-Chg-S-D-C(3)-(1Nal)-(NMe-Chg)-[3-(4-piperidinyl)-Ala]-(7Me-W)-N-C(3)-(aMe-P)-F -D-[D-Lys(DOTA)]-NH2] (Ac-[Chg]SDC[1Nal][NMeChg][Ala(piperidin-4-yl)][Trp(7-Me)]NC[αMeP]FD[dK](DOTA)-NH2; disulfide 4-10), the Kd rises from 0.26 nM to > 30 nM. The first binds more tightly here.

Compared with CC(=O)N[C@@H](CC1CCNCC1)C(=O)N[C@@H](CO)C(=O)N[C@@H](CC(=O)O)C(=O)N[C@H]1CCCC[C@@H](C(=O)N2CCC[C@@]2(C)C(=O)N[C@@H](Cc2ccccc2)C(=O)N[C@@H](CC(=O)O)C(N)=O)NC(=O)[C@H](CC(N)=O)NC(=O)[C@H](Cc2ccc3ccccc3c2)NC(=O)[C@H](Cc2ccc(CNC(=O)CN3CCN(CC(=O)O)CCN(CC(=O)O)CCN(CC(=O)O)CC3)cc2)NC(=O)[C@H](CC(C)(C)C)NC(=O)[C@H](Cc2cccc3ccccc23)NC1=O [compound 209, Ac-[3-(4-piperidinyl)-Ala]-S-D-AllyG(4)*-(1Nal)-(t-Bu-Ala)-[PAF(DOTA)]-(2Nal)-N-AllyG(4)*-(aMe-P)-F-D-CONH2], CC(=O)NCCCCCC(=O)N[C@@H](CO)C(=O)N[C@@H](CC(=O)O)C(=O)N[C@H]1CSSC[C@@H](C(=O)N2CCC[C@H]2C(=O)N[C@@H](Cc2ccccc2)C(=O)N[C@@H](CC(=O)O)C(=O)N[C@H](CCCCNC(=O)CN2CCN(CC(=O)O)CCN(CC(=O)O)CCN(CC(=O)O)CC2)C(N)=O)NC(=O)[C@H](CC(N)=O)NC(=O)[C@H](Cc2c[nH]c3ccccc23)NC(=O)[C@H](CCC(N)=O)NC(=O)[C@H](CC(C)C)NC(=O)[C@H](Cc2c[nH]c3ccccc23)NC1=O [compound 74, Ac-Ahx-S-D-C(3)-W-L-Q-W-N-C(3)-P-F-D-D-Lys(DOTA)-CONH2] (Ac-[Ahx]SDCWLQWNCPFD[dK](DOTA)-NH2; disulfide 4-10) is 15-fold higher in Kd: 0.591 nM for the first, 9 nM for the second. The first binds more tightly here.

CSCC[C@H](NC(C)=O)C(=O)N[C@@H](CO)C(=O)N[C@@H](CC(=O)O)C(=O)N[C@H]1CSSC[C@@H](C(=O)N2CCC[C@H]2C(=O)N[C@@H](Cc2ccccc2)C(=O)N[C@@H](CC(=O)O)C(N)=O)NC(=O)[C@@H](C)NC(=O)[C@H](Cc2c[nH]c3ccccc23)NC(=O)[C@H](CCC(N)=O)NC(=O)[C@H](CC(C)C)NC(=O)[C@H](Cc2c[nH]c3ccccc23)NC1=O [compound 15, Ac-M-S-D-C(3)-W-L-Q-W-(D-Ala)-C(3)-P-F-D-CONH2] (Ac-MSDCWLQW[dA]CPFD-NH2; disulfide 4-10) and CSCC[C@H](NC(C)=O)C(=O)N[C@@H](CO)C(=O)N[C@@H](CC(=O)O)C(=O)N[C@H]1CSSC[C@@H](C(=O)N2CCC[C@H]2C(=O)N[C@@H](Cc2ccccc2)C(=O)N[C@@H](CC(=O)O)C(N)=O)NC(=O)[C@H](CC(N)=O)NC(=O)[C@H](Cc2c[nH]c3ccccc23)NC(=O)[C@H](CCC(N)=O)NC(=O)[C@H](CC(C)C)NC(=O)[C@@H](C)NC1=O [compound 11, Ac-M-S-D-C(3)-(D-Ala)-L-Q-W-N-C(3)-P-F-D-CONH2] (Ac-MSDC[dA]LQWNCPFD-NH2; disulfide 4-10) cannot be ordered by Kd: > 100 nM for the first, > 100 nM for the second.

In the case of CSCC[C@H](NC(C)=O)C(=O)N[C@@H](CO)C(=O)N[C@@H](CC(=O)O)C(=O)N[C@H]1CSSC[C@@H](C(=O)N2CCC[C@H]2C(=O)N[C@@H](C)C(=O)N[C@@H](CC(=O)O)C(N)=O)NC(=O)[C@H](CC(N)=O)NC(=O)[C@H](Cc2c[nH]c3ccccc23)NC(=O)[C@H](CCC(N)=O)NC(=O)[C@H](CC(C)C)NC(=O)[C@H](Cc2c[nH]c3ccccc23)NC1=O [compound 28, Ac-M-S-D-C(3)-W-L-Q-W-N-C(3)-P-(L-Ala)-D-CONH2] (Ac-MSDCWLQWNCPAD-NH2; disulfide 4-10), the Kd is reported as > 100 nM.
